The term IC50 denotes the midpoint of a concentration-inhibition curve. A lower IC50 goes with greater potency in that assay.

For this test, the target named is T1, Ephrin type-B receptor 4 (Homo sapiens, UniProt P54760).
T1 sequence (P54760 whole entry): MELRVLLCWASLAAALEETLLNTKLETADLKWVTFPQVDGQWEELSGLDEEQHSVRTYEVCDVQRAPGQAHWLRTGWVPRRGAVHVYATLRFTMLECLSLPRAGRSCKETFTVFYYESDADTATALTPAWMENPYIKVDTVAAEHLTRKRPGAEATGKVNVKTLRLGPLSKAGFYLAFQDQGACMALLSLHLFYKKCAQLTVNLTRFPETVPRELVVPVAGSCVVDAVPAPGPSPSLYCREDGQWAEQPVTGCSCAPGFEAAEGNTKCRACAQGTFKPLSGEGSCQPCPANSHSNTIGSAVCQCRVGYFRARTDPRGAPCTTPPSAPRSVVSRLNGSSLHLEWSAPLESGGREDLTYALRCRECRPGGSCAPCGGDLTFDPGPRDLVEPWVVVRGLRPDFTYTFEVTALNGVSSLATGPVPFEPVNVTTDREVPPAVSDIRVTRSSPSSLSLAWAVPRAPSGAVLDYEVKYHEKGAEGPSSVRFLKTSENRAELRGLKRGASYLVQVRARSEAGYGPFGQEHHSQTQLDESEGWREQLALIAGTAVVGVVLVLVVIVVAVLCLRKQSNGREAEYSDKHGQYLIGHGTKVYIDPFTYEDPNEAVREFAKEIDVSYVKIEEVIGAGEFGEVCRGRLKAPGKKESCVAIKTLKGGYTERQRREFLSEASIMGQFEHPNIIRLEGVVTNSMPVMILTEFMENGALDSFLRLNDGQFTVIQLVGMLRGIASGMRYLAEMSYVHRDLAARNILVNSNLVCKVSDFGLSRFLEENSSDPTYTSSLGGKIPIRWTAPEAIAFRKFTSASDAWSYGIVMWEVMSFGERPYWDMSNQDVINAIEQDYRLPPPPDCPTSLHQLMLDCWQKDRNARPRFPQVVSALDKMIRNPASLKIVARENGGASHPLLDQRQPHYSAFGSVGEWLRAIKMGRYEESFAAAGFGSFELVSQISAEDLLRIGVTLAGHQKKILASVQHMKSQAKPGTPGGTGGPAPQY
Put plainly: EphB4-ephrin-B2 interaction antagonists, dose response, biochemical, TNYL-RAW peptide displacement (AID 835).
For `CCc1cccc2c(C#N)cn(CC(=O)N3CCOCC3)c12` [7-ethyl-1-[2-(4-morpholinyl)-2-oxoethyl]-1H-indole-3-carbonitrile], the IC50 was more than 79.4 µM. In turn, `CCn1c(CSc2nccn2C)nc2cc(C(=O)O)ccc21` [MLS000058666] came in with an IC50 of more than 79.4 µM. `Cc1[nH]c2ccccc2c1/C=C1\N=C(c2ccc(F)cc2)OC1=O` [2-(4-fluorophenyl)-4-[(2-methyl-1H-indol-3-yl)methylene]-1,3-oxazol-5(4H)-one] had an IC50 of more than 79.4 µM. In turn, `O=C(CN1C(=O)NC2(CCCC2)C1=O)NCCC1=CCCCC1` [2-[2,4-bis(oxidanylidene)-1,3-diazaspiro[4.4]nonan-3-yl]-N-[2-(cyclohexen-1-yl)ethyl]ethanamide] displayed an IC50 of more than 79.4 µM.

As for `CN(C)c1nccc(Nc2ccccc2)c1C#N` [2-(dimethylamino)-4-phenylazanyl-pyridine-3-carbonitrile], the IC50 is more than 79.4 µM. In turn, `O=C(O)c1ccc(CSc2n[nH]c(-c3ccco3)n2)cc1` [4-[[5-(furan-2-yl)-1H-1,2,4-triazol-3-yl]sulfanylmethyl]benzoic acid] showed a half-inhibitory concentration (IC50) of more than 79.4 µM.

In the case of `O=C(CSc1nnnn1Cc1ccccc1)Nc1ccc2c(c1)OCO2` [MLS000067975], the IC50 was more than 79.4 µM. Turning to `CCOC(=O)N1CCC(n2c(SCC(=O)NCCC3=CCCCC3)nc3ccccc3c2=O)CC1` [4-[2-[[2-[2-(1-cyclohexenyl)ethylamino]-2-oxoethyl]thio]-4-oxo-3-quinazolinyl]-1-piperidinecarboxylic acid ethyl ester], the IC50 was more than 79.4 µM. For the molecule `COc1cccc(C(C#N)N2CCOCC2)c1` (stereo not drawn) [2-(3-methoxyphenyl)-2-(4-morpholinyl)acetonitrile], the IC50 was more than 79.4 µM. In turn, `Cc1ccc(-n2ncc3c(=O)n(CC(=O)N4CCCCCC4)cnc32)cc1` [5-(2-azepan-1-yl-2-oxoethyl)-1-(4-methylphenyl)-1,5-dihydro-4H-pyrazolo[3,4-d]pyrimidin-4-one] registered an IC50 of more than 79.4 µM. `Cc1cc(NC(c2ccc(Cl)cc2)c2ccc3cccnc3c2O)no1` (stereo not drawn) [7-[(4-chlorophenyl)-[(5-methyl-1,2-oxazol-3-yl)amino]methyl]quinolin-8-ol] registered an IC50 of more than 79.4 µM.

For the molecule `Cc1cc(N2CCN(c3ccccn3)CC2)n2cc(-c3ccccc3)nc2n1` [7-methyl-2-phenyl-5-(4-pyridin-2-ylpiperazin-1-yl)imidazo[1,2-a]pyrimidine], the IC50 was more than 79.4 µM. `CCOc1ccc(C(CCc2ccccc2)NC(=O)c2ccccc2F)cc1OCC` (stereo not drawn) [MLS000544814] registered an IC50 of more than 79.4 µM. Molecule `COc1ccc(Cn2nnnc2C(c2cc3ccc(OC)cc3nc2O)N2CCC(C)CC2)cc1` (stereo not drawn) [MLS000523343] gave an IC50 of more than 79.4 µM. Then `Cc1cccc2c(C(=O)O)c3c(nc12)CCCCC3` [4-methyl-7,8,9,10-tetrahydro-6H-cyclohepta[b]quinoline-11-carboxylic acid], with more than 79.4 µM; and `O=C(c1cnc2ccc(S(=O)(=O)N3CCC4(CC3)OCCO4)cc2c1O)N1CCOCC1` [6-(1,4-dioxa-8-azaspiro[4.5]dec-8-ylsulfonyl)-3-(morpholin-4-ylcarbonyl)quinolin-4(1H)-one], with more than 79.4 µM. `CC(=O)c1ccc(-n2nnnc2SCC(=O)N2CCc3ccccc3C2)cc1` [1-(3,4-dihydro-1H-isoquinolin-2-yl)-2-[[1-(4-ethanoylphenyl)-1,2,3,4-tetrazol-5-yl]sulfanyl]ethanone]: the IC50 is more than 79.4 µM. `O=C(CCC1N=C2c3ccccc3N=C(SCc3ccc(F)cc3)N2C1=O)NCc1ccco1` (stereo not drawn) [3-{5-[(4-fluorobenzyl)thio]-3-oxo-2,3-dihydroimidazo[1,2-c]quinazolin-2-yl}-N-(2-furylmethyl)propanamide] returned an IC50 of more than 79.4 µM.

For the molecule `c1coc(-c2nc(-c3ccco3)c(-c3ccco3)nc2-c2ccco2)c1` [2,3,5,6-tetrakis(2-furanyl)pyrazine], the IC50 is more than 79.4 µM.

`CCCc1nnc(SCc2ccc(C(=O)OC)o2)n1N` [5-[[(4-amino-5-propyl-1,2,4-triazol-3-yl)thio]methyl]-2-furancarboxylic acid methyl ester] showed an IC50 of more than 79.4 µM. In the case of `O=C(CC(O)(c1ccccc1)C(F)(F)F)c1cccs1` (stereo not drawn) [4,4,4-trifluoro-3-hydroxy-3-phenyl-1-(2-thienyl)-1-butanone], the IC50 is more than 79.4 µM. The molecule `O=C(NNC(=O)C1CCCCC1)C(=O)NC1CCCCC1` [2-[2-(cyclohexanecarbonyl)hydrazinyl]-N-cyclohexyl-2-oxoacetamide] had an IC50 of more than 79.4 µM. The same measure for `Cc1cc(C)c(S(=O)(=O)NCc2cn3c(C)csc3n2)cc1C` [2,4,5-trimethyl-N-[(3-methyl-6-imidazo[2,1-b]thiazolyl)methyl]benzenesulfonamide]: more than 79.4 µM; for `CCOc1cc(N2CCOCC2)c(OCC)cc1NC(=O)COc1cccc2cccnc12` [MLS000060380]: more than 79.4 µM.

In turn, `CC(=O)Nc1cccc(NC(=O)CSc2nnc(Cc3cccn3C)n2-c2ccc(C)cc2)c1` [MLS000092946] came in with an IC50 of more than 79.4 µM. `O=c1c2ccccc2nc(-c2ccoc2)n1CCc1ccccc1` [2-(3-furanyl)-3-(2-phenylethyl)-4-quinazolinone] registered an IC50 of more than 79.4 µM. As for `O=C(N/N=C/c1ccncc1)c1cc([N+](=O)[O-])cc([N+](=O)[O-])c1O` [MLS000541056], the IC50 is more than 79.4 µM.

`CCCc1nnc(NC(=O)CNc2ccc(F)cc2)s1` [2-(4-fluoroanilino)-N-(5-propyl-1,3,4-thiadiazol-2-yl)acetamide] returned an IC50 of more than 79.4 µM.

Turning to `CCOc1cccc(-n2c(O)cc(=O)[nH]c2=O)c1`, the IC50 was more than 79.4 µM. For the molecule `CC(c1ccccc1)C1CC(=O)N(C2CCCCC2)C1=O` (stereo not drawn) [1-cyclohexyl-3-(1-phenylethyl)-2,5-pyrrolidinedione], the IC50 is more than 79.4 µM. Molecule `CCn1c(CSc2nnc(-c3cccnc3)n2-c2ccccc2C)nc2cc(C(=O)O)ccc21` [SMR000067019] had an IC50 of 11.1 µM. Consider `COCc1nnc(NC(=O)CC(c2ccccc2)c2ccccc2)s1` [MLS000528014], for which the IC50 was more than 79.4 µM.

For the molecule `Cc1cc(C(=O)CSc2nnc(Nc3ccccc3F)s2)c(C)n1CC1CCCO1` (stereo not drawn) [1-[2,5-dimethyl-1-(2-oxolanylmethyl)-3-pyrrolyl]-2-[[5-(2-fluoroanilino)-1,3,4-thiadiazol-2-yl]thio]ethanone], the IC50 was more than 79.4 µM. In turn, `CCC(C)(C)NC(=O)C(c1ccco1)N(C(=O)c1csnn1)c1cccc(F)c1` (stereo not drawn) [MLS000074093] gave an IC50 of more than 79.4 µM.

The molecule `Fc1ccc(Sc2cc(Cl)c(-c3ccccc3)nn2)cc1` [4-chloranyl-6-(4-fluorophenyl)sulfanyl-3-phenyl-pyridazine] registered a half-maximal inhibitory concentration (IC50) of more than 79.4 µM. Then `CCOC(=O)c1cnc(Nc2nc3ccccc3o2)nc1CN1CCN(C)CC1` [2-(1,3-benzoxazol-2-ylamino)-4-[(4-methyl-1-piperazinyl)methyl]-5-pyrimidinecarboxylic acid ethyl ester], with more than 79.4 µM; and `CC(=O)Nc1ccc(SCC(=O)OCC(=O)NC(=O)NCc2ccco2)cc1` [2-[(4-acetamidophenyl)thio]acetic acid [2-(2-furfurylcarbamoylamino)-2-keto-ethyl] ester], with more than 79.4 µM; and `Cc1ccc(N2C(=O)C(O)(C(F)(F)F)C3=C2CC(C)(C)CC3=O)cc1C` (stereo not drawn) [1-(3,4-dimethylphenyl)-3-hydroxy-6,6-dimethyl-3-(trifluoromethyl)-3,5,6,7-tetrahydro-1H-indole-2,4-dione], with more than 79.4 µM.
